Test [1] deals with pericardial strips. Kind of test: Cold induced injury in a whole tissue ex-vivo model (pericardium). The format is cell-based, Wistar rats. Conditions: control sample incubated with all-caspase inhibitor before cold. An excerpt:
To determine whether nitrated fatty acids can be used to preserve cells and tissues from cold or cryoinjury, an in vitro model utilizing murine epicardium was established. The experimental set-up should reduce the possibility of ischemia or reperfusion injury to a minimum, but at the same time allow differentiation of the contribution of ischemia/reperfusion injury-triggered cell death, which is known to occur almost exclusively via apoptosis, whereas cell death induced by cold injury almost exclusively results in necrosis.
The pericardial sac was carefully resected in 24 anesthetized Wistar rats (180-270 g) of either sex. Care was taken to grasp the pericardium with a forceps only at the cutting edges and reduce traumatization of the central portions of the pericardium to a minimum. After resection, the cutting edge and the former apex area of the pericardium were dissected, as to obtain flat tissue strips which were placed immediately in the culture medium (DMEM) containing 10% FCS and antibiotics (penicillin, streptomycin). Tissue samples were cultured in an oxygen atmosphere at 18° C. for 2 days. […] Then the pericardial strips were cut into 4 pieces of equal size. One piece was further cultivated at 37° C. without undergoing the cooling cycles, thus, serving as the control. In each of three investigations, one piece was bathed in a solution (0.9% saline and 1% SDS) containing 200 μmol nitro-fatty acid or contained 200 μmol of the corresponding native fatty acid, for 10 min at a temperature of 18° C. One piece of pericardium was bathed in a solution without fatty acids under otherwise identical conditions. All samples were cooled by continuously decreasing from ambient temperature at a rate of 3° C./min to a minimum temperature of […]. After 1 hour, the samples were rewarmed at a rate of 3° C./min by continuously increasing the temperature until a temperature of 18° C., was achieved. Thereafter an identical cooling and rewarming cycle was performed. After the second cooling cycle, the tissue pieces were further cultured in the culture medium for 1 day allowing continuous adaptation to an ambient temperature of 37° C. For analytical preparations the pericardial pieces were out and further processed. A direct TUNEL assay (Roche) was use for quantification of apoptosis, an annexin V/propidium iodide exclusion assay (Roche) was used to quantify the number of necrotic cells, and viability was determined by the WST-8 assay. Furthermore, the LDH release was quantified in the supernatants.
To rule out that cell death has been induced by ischemia or reperfusion (reoxygenation), in one series of experiments, a control sample was incubated with an all-caspase inhibitor (Q-VD-OPH, BioVision, USA) reconstituted in DMSO before the sample was exposed to cold.

In test [2] the target is T1, TRPV-1 (Mus musculus, UniProt Q704Y3).
T1 construct: Whole retinas were isolated and cut into 100 μm slices using a tissue slicer; from tissue; host or cells: mouse retinal slices (100 μm)
Kind of test: Signal transduction of receptors of the TRP-protein family in retinal slices. The format is cell-based, mice. The settings on record: preincubation (5 minutes) of TRPV-1 antagonist, saline specimens. The method, then: In order to determine the effect of nitrated fatty acids on receptor signal transduction, an in vitro model was used. Retinal slices from cadaver mice were prepared as described by Snellman and Nawy (Snellman J. Nawy S (2004). cGMP-dependent kinase regulates response sensitivity of the mouse on bipolar cell. J Neurosci 24:6621-6628). Whole retinas were isolated and cut into 100 μm slices using a tissue slicer and than transferred to the recording chamber. The chamber was continuously perfused with Ames media and oxygenated. Picrotoxin (100 μM), strychnine (10 μM), and TPMPA (50 μM) were added. Each nitro fatty acid was added in two experiments to achieve a final concentration of 10 μmol, and in another two experiments to achieve a final concentration of 50 μmol. In two experiments, the corresponding native fatty acid was added to achieve a final concentration of 10 and 50 μmol, and in two experiments saline solution was added which served as controls. Currents were measured via tissue electrodes and monitored throughout the investigation. After incubating the solution for 2 hours, the TRPV-1 agonist capsaicin was added to achieve a final concentration of 10 μmol. Experiments were performed using either 10 mmol Hepes or 10 mmol Mes adjusting the pH of the solution to 6.4 or 4.4, respectively. Furthermore, experiments were performed without or with preincubation (5 minutes) of the TRPV-1 antagonist capsazepine. The solution temperature was held constant at 35° C.

T1 sequence (Q704Y3 whole entry): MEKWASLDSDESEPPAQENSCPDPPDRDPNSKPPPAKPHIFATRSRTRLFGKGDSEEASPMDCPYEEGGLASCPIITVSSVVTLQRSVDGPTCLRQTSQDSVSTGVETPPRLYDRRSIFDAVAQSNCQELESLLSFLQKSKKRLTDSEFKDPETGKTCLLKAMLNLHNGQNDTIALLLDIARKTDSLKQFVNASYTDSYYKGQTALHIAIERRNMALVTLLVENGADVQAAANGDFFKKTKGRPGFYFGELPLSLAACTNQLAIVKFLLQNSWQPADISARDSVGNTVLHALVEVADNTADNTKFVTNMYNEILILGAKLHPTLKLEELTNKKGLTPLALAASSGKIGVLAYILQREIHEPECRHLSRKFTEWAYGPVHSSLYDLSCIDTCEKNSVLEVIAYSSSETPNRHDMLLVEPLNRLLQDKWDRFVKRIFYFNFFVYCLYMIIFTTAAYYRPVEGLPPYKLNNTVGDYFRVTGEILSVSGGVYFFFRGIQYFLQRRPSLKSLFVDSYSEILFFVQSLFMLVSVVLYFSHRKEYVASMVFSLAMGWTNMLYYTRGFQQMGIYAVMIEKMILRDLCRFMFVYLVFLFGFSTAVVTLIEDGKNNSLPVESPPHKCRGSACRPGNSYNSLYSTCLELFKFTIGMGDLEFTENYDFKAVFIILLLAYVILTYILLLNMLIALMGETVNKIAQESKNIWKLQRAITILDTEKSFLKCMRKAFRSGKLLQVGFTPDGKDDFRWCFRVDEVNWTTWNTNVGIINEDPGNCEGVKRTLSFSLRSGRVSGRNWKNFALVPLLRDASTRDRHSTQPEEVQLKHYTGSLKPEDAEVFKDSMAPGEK

On to `CC(C)[C@H](NC(=O)c1ccc2ccccc2n1)C(=O)N[C@@H](CC(=O)O)C(=O)COc1c(F)cccc1F` [Q-VD-OPH, reference compound], for which the “rate of cells undergoing apoptosis” value in test [1] was “within the range found in the cold-exposed control samples”.

`Oc1cc2c(cc1O)CN(C(=S)NCCc1ccc(Cl)cc1)CCC2` [capsazepine, reference compound]: the “capsaicin effect (induced current)” value in test [2] is reported as “inhibited”.

Source of the values: patent US20130039956A1, “USE OF NITROCARBOXYLIC ACIDS FOR THE TREATMENT, DIAGNOSIS AND PROPHYLAXIS OF AGGRESSIVE HEALING PATTERNS” (priority 2010, published 2013).
